Reference: publication PMC11538706, “Integrated Electrochemical Aptamer Biosensing and Colorimetric pH Monitoring via Hydrogel Microneedle Assays for Assessing Antibiotic Treatment” (Advanced Science, 2024)
Where two headings read alike, the source gives them in different places.

Tests used:
[1] = design: method as in PMID 24972859, PMID 29019915; conditions: cited from earlier work
[2] = PK analysis: Cmax and AUC from PK models fitted to serum and ISF concentrations; type: in vivo, Male Sprague Dawley rats; conditions: male, Sprague Dawley, rat, iv
Method: The estimation of PK parameters, such as the area under the time‐concentration level curve (AUC) and the peak concentrations (Cmax) was performed using two PK models describing the observed patterns of serum and ISF concentrations (Figure S13, Supporting Information) and the Spearman correlation test was used to assess the correlation between PK parameters in serum and ISF.^[ [53] ^] The ISF VAN concentrations used for PK analysis were drawn by interpolating the sensor's response in the VAN calibration curve. The VAN AUC and Cmax from ISF and serum were correlated with correlation values of 0.82 and 0.79, respectively (Figure 5c‐iii).
We also employed the HMN‐Flex assay for detecting GEN in ISF and drawing its PK profile. […] For this purpose, the HMN‐Flex response was monitored every 10 min up to 90 min, followed by two other measurements at 6‐ and 24‐hours (h) postinjection. […] To the best of our knowledge, this is the first time reporting the changes in ISF GEN levels in the rat animal models. […] Importantly, the PK measurements obtained using HMN‐Flex closely matched those derived from conventional blood‐based measurements while the high temporal resolution offered by the HMN‐Flex assay can potentially revolutionize the current TDM.
Two distinct PK models were utilized for this purpose: one for describing antibiotic concentrations in serum, using a 1‐compartment PK model with linear elimination, and another for ISF, consisting of three compartments in series. The model fitting process was carried out using the first‐order conditional estimation method with interaction (FOCEI) routine in Nonmem v7.4, and subsequent PK profiles were simulated from the fitted models using the mrgsolve package in R. AUC and Cmax values were directly derived from the simulated PK profiles, and the correlation between these PK parameters in serum and ISF was assessed using the Spearman correlation test.

GEN aptamer = assay: Specificity test of GEN aptamer-modified Flex electrode; type: binding; conditions: buffer 1X PBS + 2 mM MgCl2; SWV; TOBI 10 µM, DOX 100 ng/mL
Method: Additionally, employing the “dual‐frequency” method reduced the batch‐to‐batch variability and improved the sensor response (Figure S6, Supporting Information).
To determine the signal‐on and signal‐off frequencies for each of these aptamers, the aptamer‐modified Flex electrode was first dipped in a blank buffer and scanned (via SWV) at a range of frequencies (Ref). […] The sensor response at each target concentration and for each frequency was calculated via (I – I0) / I0, where “I” is the observed current (SWV peak height) at each condition, and “I0” is the observed current in the blank buffer. As a result, the frequency of 5 and 100 were selected as the signal‐off and signal‐on for the VAN aptamer. […] Afterward (and for the rest of the experiments), the sensor's response is defined as (I – I0) / I0, where the “I” represents the dual‐frequency current (I signal‐on / I signal‐off) at the experimental condition and “I0” represents the dual frequency current (I signal‐on / I signal‐off) of the (0 µM) buffer. To validate the selectivity of HMN‐Flex for VAN/GEN the aptamer‐functionalized Flex electrodes were subjected to non‐specific targets commonly present in ISF and their responses were recorded.

For CNC(C)C1CCC(N)C(OC2C(N)CC(N)C(OC3OCC(C)(O)C(NC)C3O)C2O)O1 (centres unmarked) [GEN, gentamicin], the protein binding [1] is listed as 30%, the AUC ([2]; ISF, 50 mg/kg, GEN, Rat # 4, dose 50 mg/kg i.v., read-out: ISF AUC (converted)) is listed as 1070 µM·h and the Cmax ([2]; ISF, 50 mg/kg, GEN, Rat # 4, dose 50 mg/kg i.v., read-out: ISF Cmax) is listed as 221 µM. The AUC ([2]; ISF, 50 mg/kg, GEN, Rat # 5, dose 50 mg/kg i.v., read-out: ISF AUC (converted)) was 1230 µM·h, the Cmax ([2]; ISF, 50 mg/kg, GEN, Rat # 5, dose 50 mg/kg i.v., read-out: ISF Cmax) was 387 µM and the AUC ([2]; ISF, 100 mg/kg, GEN, Rat # 6, dose 100 mg/kg i.v., read-out: ISF AUC (converted)) was 3490 µM·h. The Cmax ([2]; ISF, 100 mg/kg, GEN, Rat # 6, dose 100 mg/kg i.v., read-out: ISF Cmax) was 886 µM, the AUC ([2]; interstitial fluid (ISF), 50 mg/kg, GEN, Rat # 2, dose 50 mg/kg i.v., read-out: ISF AUC (converted)) was 509 µM·h and the Cmax ([2]; interstitial fluid (ISF), 50 mg/kg, GEN, Rat # 2, dose 50 mg/kg i.v., read-out: ISF Cmax) was 148 µM. For the same compound, the AUC ([2]; interstitial fluid (ISF), 50 mg/kg, GEN, Rat # 3, dose 50 mg/kg i.v., read-out: ISF AUC (converted)) was 776 µM·h, the Cmax ([2]; interstitial fluid (ISF), 50 mg/kg, GEN, Rat # 3, dose 50 mg/kg i.v., read-out: ISF Cmax) was 253 µM and the AUC ([2]; interstitial fluid (ISF), 100 mg/kg, GEN, Rat # 1, dose 100 mg/kg i.v., read-out: ISF AUC (converted)) was 848 µM·h. For the same compound, the Cmax ([2]; interstitial fluid (ISF), 100 mg/kg, GEN, Rat # 1, dose 100 mg/kg i.v., read-out: ISF Cmax) was 279 µM, the AUC ([2]; interstitial fluid (ISF), 100 mg/kg, GEN, Rat # 2, dose 100 mg/kg i.v., read-out: ISF AUC (converted)) was 827 µM·h and the Cmax ([2]; interstitial fluid (ISF), 100 mg/kg, GEN, Rat # 2, dose 100 mg/kg i.v., read-out: ISF Cmax) was 324 µM. The AUC ([2]; serum, 50 mg/kg, GEN, Rat # 2, dose 50 mg/kg i.v., read-out: Serum AUC (converted)) was 467 µM·h, the Cmax ([2]; serum, 50 mg/kg, GEN, Rat # 2, dose 50 mg/kg i.v., read-out: Serum Cmax) was 680 µM and the AUC ([2]; serum, 50 mg/kg, GEN, Rat # 3, dose 50 mg/kg i.v., read-out: Serum AUC (converted)) was 321 µM·h. It also gave a Cmax ([2]; serum, 50 mg/kg, GEN, Rat # 3, dose 50 mg/kg i.v., read-out: Serum Cmax) of 807 µM, an AUC ([2]; serum, 50 mg/kg, GEN, Rat # 4, dose 50 mg/kg i.v., read-out: Serum AUC (converted)) of 108 µM·h and a Cmax ([2]; serum, 50 mg/kg, GEN, Rat # 4, dose 50 mg/kg i.v., read-out: Serum Cmax) of 268 µM. For the same compound, the AUC ([2]; serum, 50 mg/kg, GEN, Rat # 5, dose 50 mg/kg i.v., read-out: Serum AUC (converted)) was 2380 µM·h, the Cmax ([2]; serum, 50 mg/kg, GEN, Rat # 5, dose 50 mg/kg i.v., read-out: Serum Cmax) was 4100 µM and the AUC ([2]; serum, 100 mg/kg, GEN, Rat # 1, dose 100 mg/kg i.v., read-out: Serum AUC (converted)) was 2410 µM·h. For the same compound, the Cmax ([2]; serum, 100 mg/kg, GEN, Rat # 1, dose 100 mg/kg i.v., read-out: Serum Cmax) was 1870 µM, the AUC ([2]; serum, 100 mg/kg, GEN, Rat # 2, dose 100 mg/kg i.v., read-out: Serum AUC (converted)) was 1120 µM·h and the Cmax ([2]; serum, 100 mg/kg, GEN, Rat # 2, dose 100 mg/kg i.v., read-out: Serum Cmax) was 1320 µM. It also gave an AUC ([2]; serum, 100 mg/kg, GEN, Rat # 6, dose 100 mg/kg i.v., read-out: Serum AUC (converted)) of 3380 µM·h and a Cmax ([2]; serum, 100 mg/kg, GEN, Rat # 6, dose 100 mg/kg i.v., read-out: Serum Cmax) of 4280 µM.

For NC[C@H]1O[C@H](O[C@H]2[C@H](O)[C@@H](O[C@H]3O[C@H](CO)[C@@H](O)[C@H](N)[C@H]3O)[C@H](N)C[C@@H]2N)[C@H](N)C[C@@H]1O [TOBI, Tobramycin], the “GEN sensor response to non-specific targets” value (GEN aptamer) was “increase in current”.

For COc1cccc2c1C(=O)c1c(O)c3c(c(O)c1C2=O)C[C@@](O)(C(=O)CO)C[C@@H]3O[C@H]1C[C@H](N)[C@H](O)[C@H](C)O1 [DOX, Doxorubicin], the “GEN sensor response to non-specific targets” value (GEN aptamer) was “did not produce a response”.

For CN[C@H](CC(C)C)C(=O)N[C@H]1C(=O)N[C@@H](CC(N)=O)C(=O)N[C@H]2C(=O)N[C@H]3C(=O)N[C@H](C(=O)N[C@H](C(=O)O)c4cc(O)cc(O)c4-c4cc3ccc4O)[C@H](O)c3ccc(c(Cl)c3)Oc3cc2cc(c3O[C@@H]2O[C@H](CO)[C@@H](O)[C@H](O)[C@H]2O[C@H]2C[C@](C)(N)[C@H](O)[C@H](C)O2)Oc2ccc(cc2Cl)[C@H]1O [VAN, vancomycin], the AUC ([2]; in vivo, 15 mg/kg, VAN, Rat # 1, dose 15 mg/kg i.v., read-out: ISF AUC (converted)) was 37 µM·h, the Cmax ([2]; in vivo, 15 mg/kg, VAN, Rat # 1, dose 15 mg/kg i.v., read-out: ISF Cmax) was 28.3 µM and the AUC ([2]; in vivo, 15 mg/kg, VAN, Rat # 1, dose 15 mg/kg i.v., read-out: Serum AUC (converted)) was 59.1 µM·h. It also gave a Cmax ([2]; in vivo, 15 mg/kg, VAN, Rat # 1, dose 15 mg/kg i.v., read-out: Serum Cmax) of 117 µM, an AUC ([2]; in vivo, 15 mg/kg, VAN, Rat # 2, dose 15 mg/kg i.v., read-out: ISF AUC (converted)) of 8.72 µM·h and a Cmax ([2]; in vivo, 15 mg/kg, VAN, Rat # 2, dose 15 mg/kg i.v., read-out: ISF Cmax) of 8.4 µM. For the same compound, the AUC ([2]; in vivo, 15 mg/kg, VAN, Rat # 2, dose 15 mg/kg i.v., read-out: Serum AUC (converted)) was 50.8 µM·h, the Cmax ([2]; in vivo, 15 mg/kg, VAN, Rat # 2, dose 15 mg/kg i.v., read-out: Serum Cmax) was 99.9 µM and the AUC ([2]; in vivo, 45 mg/kg, VAN, Rat # 1, dose 45 mg/kg i.v., read-out: ISF AUC (converted)) was 139 µM·h. For the same compound, the Cmax ([2]; in vivo, 45 mg/kg, VAN, Rat # 1, dose 45 mg/kg i.v., read-out: ISF Cmax) was 94.5 µM, the AUC ([2]; in vivo, 45 mg/kg, VAN, Rat # 1, dose 45 mg/kg i.v., read-out: Serum AUC (converted)) was 216 µM·h and the Cmax ([2]; in vivo, 45 mg/kg, VAN, Rat # 1, dose 45 mg/kg i.v., read-out: Serum Cmax) was 254 µM. For the same compound, the AUC ([2]; in vivo, 45 mg/kg, VAN, Rat # 2, dose 45 mg/kg i.v., read-out: ISF AUC (converted)) was 51.3 µM·h, the Cmax ([2]; in vivo, 45 mg/kg, VAN, Rat # 2, dose 45 mg/kg i.v., read-out: ISF Cmax) was 36.5 µM and the AUC ([2]; in vivo, 45 mg/kg, VAN, Rat # 2, dose 45 mg/kg i.v., read-out: Serum AUC (converted)) was 184 µM·h. For the same compound, the Cmax ([2]; in vivo, 45 mg/kg, VAN, Rat # 2, dose 45 mg/kg i.v., read-out: Serum Cmax) was 239 µM.
